The assay relates to interaction between CTLA-4 and PKCη. As to the kind of experiment: CTLA-4 immunoprecipitation and immunoblotting for PKCη in cotransfected JTAg cells. Format: cell-based, human. To be noted: JTAg cells cotransfected with WT Ctla4 and Xpress-tagged WT PKCη; PP2 10 μM for 30 min before anti-CD3 mAbs + B7-Fc stimulation for 5 min; FIG. 12. On the procedure:
WT Ctla4 were cotransfected with Xpress-tagged WT PKCη into JTAg cells. Cells were treated with vehicle (DMSO), PP2 (10 μM) or PP3 (10 μM) for 30 min prior to stimulation with anti-CD3 mAbs+B7-Fc recombinant protein for 5 min Cell lysates were immunoprecipitated with CTLA-4 mAb and then immunoblotted with the indicated Abs.
Simian virus 40 large T antigen-transfected human leukemic Jurkat T cells (JTAg) and MCC-specific hybridoma T cells were described previously. JTAg cells in logarithmic growth phase were transfected with plasmid DNAs by electroporation and incubated for 48 hours. Transfected cells were stimulated with OKT3 mAb and recombinant B7-Fc in the presence of cross-linking Ab for 5 min. Cell lysis in 1% digitonin lysis buffer (50 mM Tris-HCl, 50 mM NaCl, 5 mM EDTA), immunoprecipitation and Western blotting were carried out as previously described.
To map the important motif within the cytoplasmic tail of CTLA-4 that is used in the interaction with PKCη, the membrane proximal positively charged motif (K188, 191KKR193), the proline-rich motif (P205, 206, 209), and tyrosine residues (Y201 or Y218) were mutated, and the corresponding mutants examined for their ability to associate with PKCη. […] This positively charged motif is highly conserved throughout evolution from fish to primates (FIG. 10).
In general terms: A western blot detects proteins with antibodies after separation by electrophoresis.

As for `CC(C)(C)n1nc(-c2ccc(Cl)cc2)c2c(N)ncnc21` [PP2], the “interaction between CTLA-4 and PKCη (co-immunoprecipitation)” value was “not affected”.
